The numbers were not newly measured in patent US20240180871A1, “MODIFIED-RELEASE SILODOSIN COMPOSITIONS AND USE THEREOF IN METHODS FOR MALE CONTRACEPTION” (PHARMAJOR INCORPORATED, priority 2022, published 2024), which cites them from elsewhere.

Like-named read-outs stand apart in the source and are kept apart here.

Regarding `C[C@H](Cc1cc2c(c(C(N)=O)c1)N(CCCO)CC2)NCCOc1ccccc1OCC(F)(F)F` [(R)-silodosin, (−)-(R)-1-(3-hydroxypropyl)-5-[2-[[2-[2-(2,2,2-trifluoroethoxy)phenoxy]ethyl]amino]propyl]indoline-7-carboxamide], the solubility result (in acetic acid) is reported as “very soluble”, the solubility entry (in alcohol) was “freely soluble” and the solubility entry (in water) is listed as “very slightly soluble”.
For `CC(Cc1cc2c(c(C(N)=O)c1)N(CCCO)CC2)NCCOc1ccccc1OCC(F)(F)F` (centres unmarked) [silodosin, 1-(3-hydroxypropyl)-5-[2-[[2-[2-(2,2,2-trifluoroethoxy)phenoxy]ethyl]amino]propyl]indoline-7-carboxamide], the “effect on semen in male subjects” value in the data set on male subjects (during BPH treatment, in some cases, KOBAYASHI 2009, SAKATA 2012) is recorded as “causing aspermia, azoospermia, or severe oligozoospermia”. Further, the “sex-related adverse effects associated with administration” value in the data set on male subjects (known in the art) was “discomfort upon ejaculation, decrease in the quality of orgasm, decrease in erectile function, and reduction of sexual desire”.
